Source: patent US8546389B2 (priority 2010, dated 2013)

Experiments:
[1] = biological target: 1b (BK) NS5bΔ21 (Hepatitis C virus genotype 1b (isolate BK) (HCV), UniProt P26663); experiment: HCV polymerase inhibition assay, genotype 1b; type: biochemical, HCV genotype 1b (BK); details: 1b (BK) NS5bΔ21, 33P-GTP incorporation; read-out: 1b polymerase IC50 (range class)
Method in brief: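 NS5bΔ21 (50 nM) in Tris-HCl pH 7.5 with Mg2+/Mn2+, DTT, BSA, 0.5% DMSO, poly(rC) template, GTP at Km and ^33P-GTP; 3-fold compound dilutions. GTP-started reactions stopped with EDTA after 1 h; incorporation read by DEAE filter scintillation counting. IC50 by non-linear regression; 3a enzyme run the same way.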

[2] = system: genotype 1b (Con 1) subgenomic replicon cell line; experiment: HCV replicon assay, genotype 1b (Renilla luciferase); type: cell-based, HCV genotype 1b (Con 1); details: Hepatitis C virus; genotype 1b replicon, 72 hours, luciferase; read-out: genotype 1b EC50 (range class)
Method in brief: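 Subgenomic replicon cells expressing Renilla luciferase (1b Con1; 1a and 2a lines by the same method) seeded at 7000 cells/well (5000 for 2a) without G418, exposed to 3-fold compound dilutions for 72 h at 37 °C. Luciferase activity measured; EC50 by non-linear regression.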

1b (BK) NS5bΔ21, sequence (P26663 2420-2989): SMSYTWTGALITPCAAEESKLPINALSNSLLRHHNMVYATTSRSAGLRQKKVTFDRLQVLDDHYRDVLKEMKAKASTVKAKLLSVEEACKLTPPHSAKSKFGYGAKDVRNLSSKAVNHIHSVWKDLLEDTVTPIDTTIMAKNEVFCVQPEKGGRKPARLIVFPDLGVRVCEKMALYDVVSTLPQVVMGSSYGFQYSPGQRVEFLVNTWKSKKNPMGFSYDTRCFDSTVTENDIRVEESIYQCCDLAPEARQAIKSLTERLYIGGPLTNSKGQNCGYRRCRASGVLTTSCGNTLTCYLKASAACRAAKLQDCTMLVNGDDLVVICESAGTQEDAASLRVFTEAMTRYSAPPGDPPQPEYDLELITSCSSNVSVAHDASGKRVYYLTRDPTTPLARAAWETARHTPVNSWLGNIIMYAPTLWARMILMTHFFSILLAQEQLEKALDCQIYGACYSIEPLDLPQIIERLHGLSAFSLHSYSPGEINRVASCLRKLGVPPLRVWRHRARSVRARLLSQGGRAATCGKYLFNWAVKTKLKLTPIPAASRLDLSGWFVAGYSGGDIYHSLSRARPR

CNC(=O)c1c2cc(C3CC3)c(N(CCCOC(C)=O)S(C)(=O)=O)cc2nn1-c1ccc(Nc2ccc(F)cc2)cc1 [Compound 116]
IC50 [1]: < 990 nM | EC50 [2]: < 990 nM

CNC(=O)c1c2cc(C3CC3)c(N(CCCOC(=O)c3cnccn3)S(C)(=O)=O)cc2nn1-c1ccc(Oc2ccc(F)cc2)cc1 [Compound 118]
IC50 [1]: < 990 nM | EC50 [2]: < 990 nM

CNC(=O)c1c2cc(C3CC3)c(N(CCCO)S(C)(=O)=O)cc2nn1-c1ccc(NCC(C)C)cc1 [Compound 122]
IC50 [1]: 1000 to 9990 nM | EC50 [2]: < 990 nM

CCN(c1cc2nn(-c3ccc(Nc4ccccc4F)cc3)c(C(=O)NC)c2cc1OC)S(C)(=O)=O [Compound 123]
IC50 [1]: 1000 to 9990 nM | EC50 [2]: < 990 nM

CCN(c1cc2nn(-c3ccc(NCC(C)C)cc3)c(C(=O)NC)c2cc1OC)S(C)(=O)=O [Compound 124]
IC50 [1]: 1000 to 9990 nM | EC50 [2]: 1000 to 9990 nM

CCN(c1cc2nn(-c3ccccc3)c(C(=O)NC)c2cc1OC)S(C)(=O)=O [Compound 125]
IC50 [1]: 10000 to 50000 nM | EC50 [2]: 1000 to 9990 nM

CNC(=O)c1c2cc(OC)c(N(CCCO)S(C)(=O)=O)cc2nn1-c1ccc(Nc2ccccc2F)cc1 [Compound 126]
IC50 [1]: 1000 to 9990 nM | EC50 [2]: 1000 to 9990 nM

CNC(=O)c1c2cc(C3CC3)c(N3CCCCC3=O)cc2nn1-c1ccc(Nc2ccc(F)cc2)cc1 [Compound 127]
IC50 [1]: 10000 to 50000 nM | EC50 [2]: 1000 to 9990 nM

CNC(=O)c1c2cc(C3CC3)c(N3CCCS3(=O)=O)cc2nn1-c1ccc(Br)cc1 [Compound 128]
IC50 [1]: 1000 to 9990 nM | EC50 [2]: 1000 to 9990 nM

C=C(C)c1cc2c(C(=O)NC)n(-c3ccc(F)cc3)nc2cc1N(CC)S(C)(=O)=O [Compound 129]
IC50 [1]: 10000 to 50000 nM | EC50 [2]: 1000 to 9990 nM

CCN(c1cc2nn(-c3ccc(F)cc3)c(C(=O)NC)c2cc1Br)S(C)(=O)=O [Compound 132]
IC50 [1]: 1000 to 9990 nM | EC50 [2]: 10000 to 50000 nM

CNC(=O)c1c2cc(C3CC3)c(N(CCCNC(=O)CN)S(C)(=O)=O)cc2nn1-c1ccc(Br)cc1 [Compound 133]
IC50 [1]: < 990 nM | EC50 [2]: 1000 to 9990 nM

CNC(=O)c1c2cc(C3CC3)c(N(CCCN(C)S(C)(=O)=O)S(C)(=O)=O)cc2nn1-c1ccc(Br)cc1 [Compound 135]
IC50 [1]: < 990 nM | EC50 [2]: < 990 nM

CCN(c1cc2nn(-c3ccc(F)cc3)c(C(=O)NC)c2cc1C1CC1)S(C)(=O)=O [Compound 138]
IC50 [1]: < 990 nM | EC50 [2]: < 990 nM

CCN(c1cc2nn(-c3ccc(F)cc3)c(C(=O)NC)c2cc1C)S(C)(=O)=O [Compound 139]
IC50 [1]: 1000 to 9990 nM | EC50 [2]: 10000 to 50000 nM

CNC(=O)c1c2cc(C3CC3)c(N(Cc3ccncc3)S(C)(=O)=O)cc2nn1-c1ccc(Br)cc1 [Compound 140]
IC50 [1]: < 990 nM | EC50 [2]: < 990 nM

CCOC(=O)CN(c1cc2nn(-c3ccc(Br)cc3)c(C(=O)NC)c2cc1C1CC1)S(C)(=O)=O [Compound 141]
IC50 [1]: 1000 to 9990 nM | EC50 [2]: 10000 to 50000 nM

CCN(c1cc2nn(-c3ccc(F)cc3)c(C(=O)NC)c2cc1C1=CCOCC1)S(C)(=O)=O [Compound 142]
IC50 [1]: 10000 to 50000 nM | EC50 [2]: 1000 to 9990 nM

CNC(=O)CCCN(c1cc2nn(-c3ccc(Br)cc3)c(C(=O)NC)c2cc1C1CC1)S(C)(=O)=O [Compound 143]
IC50 [1]: < 990 nM | EC50 [2]: 1000 to 9990 nM

CC=Cc1cc2c(C(=O)NC)n(-c3ccc(F)cc3)nc2cc1N(CC)S(C)(=O)=O [Compound 144]
IC50 [1]: 1000 to 9990 nM | EC50 [2]: 1000 to 9990 nM

CCCc1cc2c(C(=O)NC)n(-c3ccc(F)cc3)nc2cc1N(CC)S(C)(=O)=O [Compound 145]
IC50 [1]: 1000 to 9990 nM | EC50 [2]: 1000 to 9990 nM

CNC(=O)c1c2cc(C3CC3)c(N(CCCNC(=O)c3ccccc3C(=O)O)S(C)(=O)=O)cc2nn1-c1ccc(NCC(C)C)cc1 [Compound 146]
IC50 [1]: < 990 nM | EC50 [2]: 1000 to 9990 nM

CNC(=O)c1c2cc(C3CC3)c(N(CCCNC(=O)c3ccccc3C(=O)O)S(C)(=O)=O)cc2nn1-c1ccc(Br)cc1 [Compound 147]
IC50 [1]: < 990 nM | EC50 [2]: 1000 to 9990 nM

CNC(=O)CCN(c1cc2nn(-c3ccc(Br)cc3)c(C(=O)NC)c2cc1C1CC1)S(C)(=O)=O [Compound 148]
IC50 [1]: < 990 nM | EC50 [2]: 1000 to 9990 nM

CCN(c1cc2nn(-c3ccc(F)cc3)c(C(=O)NC)c2cc1C#CC(C)(C)O)S(C)(=O)=O [Compound 149]
IC50 [1]: < 990 nM | EC50 [2]: 10000 to 50000 nM

CNC(=O)c1c2cc(C3CC3)c(N(CCC(=O)NS(=O)(=O)c3ccccc3)S(C)(=O)=O)cc2nn1-c1ccc(Br)cc1 [Compound 150]
IC50 [1]: < 990 nM | EC50 [2]: 10000 to 50000 nM

CNC(=O)c1ccccc1C(=O)NCCCN(c1cc2nn(-c3ccc(Br)cc3)c(C(=O)NC)c2cc1C1CC1)S(C)(=O)=O [Compound 151]
IC50 [1]: < 990 nM | EC50 [2]: 1000 to 9990 nM

CNC(=O)CCC(=O)NCCCN(c1cc2nn(-c3ccc(Br)cc3)c(C(=O)NC)c2cc1C1CC1)S(C)(=O)=O [Compound 152]
IC50 [1]: < 990 nM | EC50 [2]: 10000 to 50000 nM

CNC(=O)c1c2cc(C3CC3)c(N(CCC(=O)NS(=O)(=O)c3cccs3)S(C)(=O)=O)cc2nn1-c1ccc(Br)cc1 [Compound 153]
IC50 [1]: < 990 nM | EC50 [2]: 10000 to 50000 nM

CNC(=O)c1c2cc(C3CC3)c(N(CCC(=O)NS(=O)(=O)c3ccc(F)cc3)S(C)(=O)=O)cc2nn1-c1ccc(Br)cc1 [Compound 154]
IC50 [1]: < 990 nM | EC50 [2]: 10000 to 50000 nM

CNC(=O)c1c2cc(C3CC3)c(N(CCC(=O)N(C)C)S(C)(=O)=O)cc2nn1-c1ccc(Br)cc1 [Compound 155]
IC50 [1]: < 990 nM | EC50 [2]: 1000 to 9990 nM

CNC(=O)c1c2cc(C3CC3)c(-c3nccn3C)cc2nn1-c1ccc(F)cc1 [Compound 157]
IC50 [1]: 1000 to 9990 nM | EC50 [2]: 10000 to 50000 nM

CNC(=O)c1c2cc(C3CC3)c(N(CCCNC(=O)CCOC)S(C)(=O)=O)cc2nn1-c1ccc(Br)cc1 [Compound 161]
IC50 [1]: < 990 nM | EC50 [2]: < 990 nM

CCNC(=O)CCN(c1cc2nn(-c3ccc(Br)cc3)c(C(=O)NC)c2cc1C1CC1)S(C)(=O)=O [Compound 162]
IC50 [1]: 1000 to 9990 nM | EC50 [2]: 1000 to 9990 nM

CCN(c1cc2nn(-c3ccc(F)cc3)c(C(=O)NC)c2cc1-c1csc(C)n1)S(C)(=O)=O [Compound 163]
IC50 [1]: 10000 to 50000 nM | EC50 [2]: 1000 to 9990 nM

CCCNC(=O)CCN(c1cc2nn(-c3ccc(Br)cc3)c(C(=O)NC)c2cc1C1CC1)S(C)(=O)=O [Compound 165]
IC50 [1]: 1000 to 9990 nM | EC50 [2]: 1000 to 9990 nM

CNC(=O)c1c2cc(C3CC3)c(N(CCCNC(=O)c3cn(C)cn3)S(C)(=O)=O)cc2nn1-c1ccc(Br)cc1 [Compound 167]
IC50 [1]: < 990 nM | EC50 [2]: < 990 nM

CNC(=O)c1c2cc(C3CC3)c(N(CCCNC(=O)c3cnoc3)S(C)(=O)=O)cc2nn1-c1ccc(Br)cc1 [Compound 168]
IC50 [1]: < 990 nM | EC50 [2]: < 990 nM

CNC(=O)c1c2cc(C3CC3)c(N(CCCN3C(=O)c4ccccc4C3=O)S(C)(=O)=O)cc2nn1-c1ccc(Br)cc1 [Compound 169]
IC50 [1]: < 990 nM | EC50 [2]: < 990 nM

CCN(c1cc2nn(-c3ccc(F)cc3)c(C(=O)NC)c2cc1OCC#N)S(C)(=O)=O [Compound 170]
IC50 [1]: < 990 nM | EC50 [2]: < 990 nM

CNC(=O)c1c2cc(C3CC3)c(N(CCCNC(=O)c3cnoc3C)S(C)(=O)=O)cc2nn1-c1ccc(Br)cc1 [Compound 173]
IC50 [1]: < 990 nM | EC50 [2]: < 990 nM

CNC(=O)c1c2cc(C3CC3)c(N(CCCNC(=O)c3ccnnc3)S(C)(=O)=O)cc2nn1-c1ccc(Br)cc1 [Compound 178]
IC50 [1]: < 990 nM | EC50 [2]: 1000 to 9990 nM

CNC(=O)c1c2cc(C3CC3)c(N(CCCNC(=O)c3ccco3)S(C)(=O)=O)cc2nn1-c1ccc(Br)cc1 [Compound 181]
IC50 [1]: < 990 nM | EC50 [2]: < 990 nM
